The values that follow come from patent US20150133456A1, “FLUOROERGOLINE DERIVATIVES AND USES THEREOF” (MAP PHARMACEUTICALS, INC., priority 2012, published 2015).

Some results are limits rather than exact numbers.

One assay deals with T1, human 5-HT2B receptor (Homo sapiens, UniProt P41595).
T1 construct: host or cells: CHO-K1 coexpressing mitochondrial apoaequorin
Nature of the assay: Aequorin assay, antagonist activity at 5-HT2B. In kind it is cell-based. How it is done: Percentage inhibition values were determined for 2-CF3 dihydroergotamine on the 5-HT2B receptor.

A further assay addresses human 5-HT1D receptor (Homo sapiens, UniProt P28221). In words: GTPγS agonist assay, 5-HT1D. In kind it is biochemical.
The target of the next assay is T2, D2 receptor (Homo sapiens, UniProt P14416).
T2 construct: expressed in transfected cells
Nature of the assay: Agonist activity at the D2 receptor. The assay is classed as cell-based. As to conditions: read-out: EC50, D2 receptor agonism. How it is done:
The assay was performed analogously to the assay described in Example 4.

For another assay, the target named is T3, α1D receptor (Homo sapiens, UniProt P25100).
T3 construct: expressed in transfected cells
In words: Competitive antagonist activity, adrenergic α1D. As to conditions: read-out: IC50, α1D antagonism. The assay is classed as cell-based.

In the next assay the target is human α2A receptor (Homo sapiens, UniProt P08913). Nature of the assay: GTPγS antagonist assay, α2A. The assay is classed as biochemical. Particulars: read-out: IC50, α2A antagonism.
In the next assay the target is human α2C receptor (Homo sapiens, UniProt P18825). In words: GTPγS antagonist assay, α2C. Particulars: read-out: IC50, α2C antagonism. In kind it is biochemical.
Assay [1] concerns NMDA (NR1/NR2A/NR2B/NR2C/NR2D). Nature of the assay: NMDA receptor Fluo-8 calcium FLIPR assay, agonist and antagonist. In kind it is cell-based, human. Particulars: NMDA channels in HEK293. Here is the method:
The following channels were evaluated: Cloned NMDA receptor (NR1/NR2A) channel (encoded by the GRIN1 and GRIN2A genes, coexpressed in HEK293 cells; Cloned NMDA receptor (NR1/NR2B) channel (encoded by the GRIN1 and GRIN2B genes, coexpressed in HEK293 cells; Cloned NMDA receptor (NR1/NR2C) channel (encoded by the GRIN1 and GRIN2C genes, coexpressed in HEK293 cells; and Cloned NMDA receptor (NR1/NR2D) channel (encoded by the GRIN1 and GRIN2D genes, transiently coexpressed in HEK293 cells.
For the agonist assessment, the effect of 2-CF3-DHE was evaluated in the absence of the positive control agonist. The signal, elicited in the presence of the agonist (100 μM Glutamic acid+20 μM Glycine), was set to 100% activation and the signal in the presence of the vehicle control (Mg^2+-free HB-PS) was set to 0% activation.
For the antagonist assessment, NR1/NR2A and NR1/NR2B was activated with the positive control agonist (100 μM Glutamic acid+20 μM Glycine). The ability of 2-CF3-DHE to inhibit the signal was examined after agonist stimulation and compared to the positive control antagonist (MK-801).

Assay [2] deals with Purinergic (P2X1/P2X2/P2X3/P2X4/P2X7). In words: Purinergic receptor QPatch patch clamp, agonist and antagonist modes. Particulars: agonist and antagonist modes at 3 and 10 μM. In kind it is cell-based, human. How it is done:
Human recombinant purinergic receptor expressing HEK293 cells were used and receptor activity was evaluated at room temperature using QPatch HT® (Sophion Bioscience A/S, Denmark) automatic parallel patch clamp system. 2CF3-DHE was evaluated in both agonist and antagonist modes at 3 and 10 μM. Each concentration was tested in triplicates.
On the technique in general: In patch-clamp work, channel activity is measured electrically.

Assay [3] concerns VIP/PACAP (PAC1/VPAC1/VPAC2). Nature of the assay: VIP/PACAP receptor Aequorin assays. The assay is classed as cell-based, human. How it is done: (§1) CHO-K1 cells coexpressing mitochondrial apoaequorin and the recombinant human receptor of interest were grown to mid-log phase in culture media without antibiotics and then detached with PBS-EDTA, centrifuged and resuspended in assay buffer (DMEM/HAM's F12 with HEPES, without phenol red+0.1% BSA, protease free) at a concentration of 1×10^6 cell/mL. Cells were incubated at room temperature for at least 4 hours with coelenterazine h. Reference agonist/antagonist was tested to evaluate the performance of the assay and to determine EC50/IC50.
(§2) 50 μL of the cell suspension was mixed with 50 μL of test or reference agonist in a 96-well plate. […] For antagonist testing, 100 μL of the reference agonist at its EC80 was injected on the mix of cells and test compound, following an incubation of 15 minutes after the first injection. The resulting emission of light was r recorded using Hamamatsu Functional Drug Screening System 6000 (FDSS 6000) luminometer. To standardize the emission of recorded light (and determine of the “100% signal”) across plates and across different experiments, some wells contained 100 μM digitonin or a saturating concentration of ATP (20 μM).

For a further assay, the target named is T4, CCK2 (Homo sapiens, UniProt P32239).
T4 construct: expressed in transfected cells; host or cells: CHO-AEQ (CHO-K1 with mitochondrial apoaequorin)
Nature of the assay: Cholecystokinin receptor Aequorin assay. The assay is classed as cell-based. Particulars: antagonism. How it is done: as §1, §2

The next assay deals with T5, Calcitonin (CGRP) (Homo sapiens, UniProt O60894+Q16602).
T5 construct: expressed in transfected cells; host or cells: CHO-AEQ (CHO-K1 with mitochondrial apoaequorin)
Nature of the assay: CGRP receptor Aequorin assay. In kind it is cell-based. How it is done: as §1, §2

The target of another assay is T6, NK1 (Homo sapiens, UniProt P25103).
T6 construct: expressed in transfected cells; host or cells: CHO-AEQ (CHO-K1 with mitochondrial apoaequorin)
In words: Neurokinin receptor Aequorin assay. The assay is classed as cell-based. Particulars: antagonism. How it is done:
as §1, §2

The target in another assay is T7, Adenosine A2a (Homo sapiens, UniProt P29274).
T7 construct: expressed in transfected cells; host or cells: HEK293
Nature of the assay: Adenosine A2a cAMP HTRF assay. In kind it is cell-based. Particulars: HEK293, cAMP. How it is done: Cells expressing the human recombinant receptor of interest were grown in media without antibiotic and detached by gentle flushing with PBS-EDTA (5 mM EDTA), recovered by centrifugation and resuspended in assay buffer (KRH: 5 mM KCl, 1.25 mM MgSO4, 124 mM NaCl, 25 mM HEPES, 13.3 mM glucose, 1.25 mM KH2PO4, 1.45 mM CaCl2, 0.5 g/L BSA). Dose response curves were performed in parallel with the reference compounds. For agonist tests (96-well plates), 12 μL of cells was mixed with 12 μL of the test compound at increasing concentrations and then incubated for 30 minutes at room temperature. Lysis buffer was added and after a 1 hour incubation, cAMP concentrations was determined according to the manufacturer specification with the HTRF kit. For antagonist tests (96-well plates), 12 μL of cells was mixed with 6 μL of the test compound at increasing concentrations and then incubated for 10 minutes. 6 μL of the reference agonist was added at a final concentration corresponding to the historical EC80. The plates were then incubated for 30 minutes at room temperature. Lysis buffer was added and after a 1 hour incubation, cAMP concentrations were determined according to the manufacturer specification, with the HTRF kit.
(In general: In TR-FRET formats the signal depends on donor and acceptor labels being close together.)

The next assay concerns the target human 5-HT1B receptor (Homo sapiens, UniProt P28222). In words: GTPγS agonist assay, 5-HT1B.

T7 sequence (P29274 whole entry): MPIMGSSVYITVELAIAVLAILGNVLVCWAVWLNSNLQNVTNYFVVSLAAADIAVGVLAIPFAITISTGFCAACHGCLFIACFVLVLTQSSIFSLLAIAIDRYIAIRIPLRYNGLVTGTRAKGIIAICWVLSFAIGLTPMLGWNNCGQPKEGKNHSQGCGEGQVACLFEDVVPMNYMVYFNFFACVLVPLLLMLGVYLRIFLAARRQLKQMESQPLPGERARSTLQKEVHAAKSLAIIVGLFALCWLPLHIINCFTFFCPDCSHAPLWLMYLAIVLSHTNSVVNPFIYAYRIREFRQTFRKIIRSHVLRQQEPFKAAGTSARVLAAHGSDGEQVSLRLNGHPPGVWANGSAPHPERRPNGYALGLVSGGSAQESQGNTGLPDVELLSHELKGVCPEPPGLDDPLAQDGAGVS
T1 sequence (P41595 whole entry): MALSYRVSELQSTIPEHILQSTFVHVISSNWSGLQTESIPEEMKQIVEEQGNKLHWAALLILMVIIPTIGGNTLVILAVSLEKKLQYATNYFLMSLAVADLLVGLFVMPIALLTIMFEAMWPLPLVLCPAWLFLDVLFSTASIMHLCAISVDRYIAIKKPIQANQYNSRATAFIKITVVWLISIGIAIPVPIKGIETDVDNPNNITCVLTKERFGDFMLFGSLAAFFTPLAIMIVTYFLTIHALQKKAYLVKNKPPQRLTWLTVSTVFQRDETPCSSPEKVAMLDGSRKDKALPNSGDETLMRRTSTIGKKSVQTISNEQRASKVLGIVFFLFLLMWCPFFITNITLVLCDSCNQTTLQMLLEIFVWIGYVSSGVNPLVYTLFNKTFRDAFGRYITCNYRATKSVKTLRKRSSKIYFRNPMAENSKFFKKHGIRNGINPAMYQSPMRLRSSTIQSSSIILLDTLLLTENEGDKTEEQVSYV
Chain of human 5-HT1D receptor (P28221 whole entry): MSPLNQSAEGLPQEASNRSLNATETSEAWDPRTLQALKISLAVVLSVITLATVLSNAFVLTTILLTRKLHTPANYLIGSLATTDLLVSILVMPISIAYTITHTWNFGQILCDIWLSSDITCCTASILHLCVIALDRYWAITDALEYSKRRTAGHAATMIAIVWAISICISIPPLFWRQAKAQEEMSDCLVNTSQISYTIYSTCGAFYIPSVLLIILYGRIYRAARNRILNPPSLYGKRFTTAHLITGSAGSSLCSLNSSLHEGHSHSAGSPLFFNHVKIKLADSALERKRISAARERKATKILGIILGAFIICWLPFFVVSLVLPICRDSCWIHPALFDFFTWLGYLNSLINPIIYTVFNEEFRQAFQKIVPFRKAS
T3 sequence (P25100 whole entry): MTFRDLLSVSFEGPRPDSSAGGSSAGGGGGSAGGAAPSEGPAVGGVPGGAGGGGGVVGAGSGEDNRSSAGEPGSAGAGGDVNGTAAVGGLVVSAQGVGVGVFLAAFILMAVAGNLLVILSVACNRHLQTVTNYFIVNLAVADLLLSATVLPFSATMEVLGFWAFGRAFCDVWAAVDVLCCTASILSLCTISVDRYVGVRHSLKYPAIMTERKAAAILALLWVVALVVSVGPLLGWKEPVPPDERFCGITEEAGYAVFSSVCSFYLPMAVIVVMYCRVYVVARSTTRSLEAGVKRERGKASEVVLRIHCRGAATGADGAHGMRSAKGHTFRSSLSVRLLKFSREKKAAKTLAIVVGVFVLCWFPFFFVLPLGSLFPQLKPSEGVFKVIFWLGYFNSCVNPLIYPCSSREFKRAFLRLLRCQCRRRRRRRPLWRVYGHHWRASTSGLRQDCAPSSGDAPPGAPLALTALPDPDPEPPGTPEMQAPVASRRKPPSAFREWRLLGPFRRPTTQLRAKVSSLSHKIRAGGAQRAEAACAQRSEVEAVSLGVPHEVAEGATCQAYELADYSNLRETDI
T6 sequence (P25103 whole entry): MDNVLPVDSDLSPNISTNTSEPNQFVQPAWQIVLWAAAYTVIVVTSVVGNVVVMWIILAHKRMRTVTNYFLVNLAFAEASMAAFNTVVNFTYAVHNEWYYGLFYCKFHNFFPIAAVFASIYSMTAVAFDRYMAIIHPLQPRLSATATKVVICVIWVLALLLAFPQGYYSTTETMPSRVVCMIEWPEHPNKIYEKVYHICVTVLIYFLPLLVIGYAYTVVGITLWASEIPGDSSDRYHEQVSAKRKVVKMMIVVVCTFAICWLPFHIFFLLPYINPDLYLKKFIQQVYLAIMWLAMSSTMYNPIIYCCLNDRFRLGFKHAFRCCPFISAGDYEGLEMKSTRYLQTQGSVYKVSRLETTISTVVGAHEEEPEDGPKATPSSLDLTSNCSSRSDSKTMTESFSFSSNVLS
Chain of human 5-HT1B receptor (P28222 whole entry): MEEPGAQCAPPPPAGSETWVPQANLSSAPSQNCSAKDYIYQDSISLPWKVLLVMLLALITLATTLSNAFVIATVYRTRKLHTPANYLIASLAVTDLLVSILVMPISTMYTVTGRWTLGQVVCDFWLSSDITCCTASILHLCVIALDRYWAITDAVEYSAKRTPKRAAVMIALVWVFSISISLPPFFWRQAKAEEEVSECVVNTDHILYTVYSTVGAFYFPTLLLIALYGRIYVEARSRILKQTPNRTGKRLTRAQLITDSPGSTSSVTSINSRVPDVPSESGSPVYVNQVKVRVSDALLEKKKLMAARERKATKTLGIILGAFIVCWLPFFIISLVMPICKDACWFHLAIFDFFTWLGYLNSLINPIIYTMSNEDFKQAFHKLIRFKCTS
Chain of human α2C receptor (P18825 whole entry): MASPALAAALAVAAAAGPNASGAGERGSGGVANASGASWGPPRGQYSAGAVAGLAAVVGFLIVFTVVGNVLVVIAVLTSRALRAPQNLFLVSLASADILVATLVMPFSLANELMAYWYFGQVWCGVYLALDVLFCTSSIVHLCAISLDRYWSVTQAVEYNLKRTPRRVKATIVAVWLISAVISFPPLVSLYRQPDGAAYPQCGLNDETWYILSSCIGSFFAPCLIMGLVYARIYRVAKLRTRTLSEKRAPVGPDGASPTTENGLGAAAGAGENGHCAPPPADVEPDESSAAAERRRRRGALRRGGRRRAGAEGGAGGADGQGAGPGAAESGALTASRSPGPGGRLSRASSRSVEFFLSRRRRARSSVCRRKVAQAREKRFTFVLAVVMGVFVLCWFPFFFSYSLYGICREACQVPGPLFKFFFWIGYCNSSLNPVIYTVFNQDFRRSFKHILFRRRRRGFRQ
T4 sequence (P32239 whole entry): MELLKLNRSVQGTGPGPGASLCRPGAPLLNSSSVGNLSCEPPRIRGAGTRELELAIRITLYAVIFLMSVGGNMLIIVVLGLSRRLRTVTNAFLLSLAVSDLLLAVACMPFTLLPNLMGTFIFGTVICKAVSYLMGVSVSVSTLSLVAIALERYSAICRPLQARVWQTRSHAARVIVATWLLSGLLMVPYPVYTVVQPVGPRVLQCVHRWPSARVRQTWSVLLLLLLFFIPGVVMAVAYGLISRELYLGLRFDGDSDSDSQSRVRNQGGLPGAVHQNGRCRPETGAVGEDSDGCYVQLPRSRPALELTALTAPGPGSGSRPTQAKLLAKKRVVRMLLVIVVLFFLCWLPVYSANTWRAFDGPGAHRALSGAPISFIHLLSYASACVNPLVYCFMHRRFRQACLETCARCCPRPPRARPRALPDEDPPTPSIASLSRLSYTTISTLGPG
Chain of human α2A receptor (P08913 whole entry): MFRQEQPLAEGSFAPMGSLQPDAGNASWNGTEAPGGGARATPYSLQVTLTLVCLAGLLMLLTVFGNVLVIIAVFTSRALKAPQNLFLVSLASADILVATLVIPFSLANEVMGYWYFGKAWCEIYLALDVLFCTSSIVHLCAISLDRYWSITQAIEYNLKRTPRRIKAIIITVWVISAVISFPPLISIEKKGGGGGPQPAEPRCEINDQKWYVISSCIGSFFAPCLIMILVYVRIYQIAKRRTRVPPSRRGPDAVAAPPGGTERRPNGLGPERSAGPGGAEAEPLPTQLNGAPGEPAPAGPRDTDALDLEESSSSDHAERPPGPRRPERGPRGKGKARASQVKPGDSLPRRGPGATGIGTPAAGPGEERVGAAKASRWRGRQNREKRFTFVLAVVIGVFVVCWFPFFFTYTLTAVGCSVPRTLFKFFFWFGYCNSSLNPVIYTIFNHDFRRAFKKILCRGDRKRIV
T5 sequence (Q16602 23-461): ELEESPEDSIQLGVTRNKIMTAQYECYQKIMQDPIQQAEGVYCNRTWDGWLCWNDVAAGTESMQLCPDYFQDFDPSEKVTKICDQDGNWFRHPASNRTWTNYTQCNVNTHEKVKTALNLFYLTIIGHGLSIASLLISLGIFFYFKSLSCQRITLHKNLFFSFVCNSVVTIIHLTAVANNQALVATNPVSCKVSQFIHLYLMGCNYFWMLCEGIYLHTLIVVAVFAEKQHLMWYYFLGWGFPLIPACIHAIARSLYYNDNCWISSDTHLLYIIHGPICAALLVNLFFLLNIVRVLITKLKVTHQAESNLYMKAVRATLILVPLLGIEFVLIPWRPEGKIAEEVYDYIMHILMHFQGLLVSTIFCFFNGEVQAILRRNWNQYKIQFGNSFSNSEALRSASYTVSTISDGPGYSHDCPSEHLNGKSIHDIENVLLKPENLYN
T5 sequence (O60894 27-148 partner): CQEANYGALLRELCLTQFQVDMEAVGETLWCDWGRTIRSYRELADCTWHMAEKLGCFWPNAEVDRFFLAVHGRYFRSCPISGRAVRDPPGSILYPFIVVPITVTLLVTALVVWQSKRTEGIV
Experimental for human 5-HT1B receptor: (§3) The mixture was shaken for 2 minutes prior to a 60 min incubation. It was then centrifuged for 10 minutes and counted for 1 minute with a Perkin Elmer TopCount reader. The resulting emission of light was recorded using a luminometer. Agonist percentage activation determinations were obtained by comparing with the Emax of the reference agonist α-methyl-5-HT.
Experimental for human 5-HT1D receptor: as §3

Usually IC50 stands for the concentration needed to halve the response being measured. As a reminder, the EC50 is the concentration giving half of the maximal effect. As usually defined, the Emax is the greatest response seen or fitted, relative to the assay's reference. In the case of `CN1C[C@H](C(=O)N[C@]2(C)O[C@@]3(O)[C@@H]4CCCN4C(=O)[C@H](Cc4ccccc4)N3C2=O)CC2c3cccc4[nH]c(C(F)(F)F)c(c34)CC21` (stereo partly shown) [2-CF3-dihydroergotamine], on human 5-HT2B receptor (FIG. 2), the “antagonism of the 5-HT2B receptor” value was “potent antagonism”. The IC50 is 204 nM on human 5-HT2B receptor (reference agonist at its EC80, read-out: IC50, 5-HT2B antagonism); 40.2 nM at α1D receptor; 404 nM at human α2A receptor; 2780 nM on human α2C receptor; above 10000 nM against CCK2; above 1000 nM on NK1. Besides, the half-maximal effective concentration (EC50) is 13.6 nM at human 5-HT1D receptor; 218 nM on D2 receptor; 5.27 nM on Adenosine A2a (read-out: EC50, Adenosine A2a agonism); 406 nM on human 5-HT1B receptor. Moreover, the “Activity (Agonism: EC50; Antagonism: IC50)” value (in assay [1]; in [2]; in assay [3]; at Calcitonin (CGRP)) was “Inactive” each time. In addition, the maximal response (Emax) at Adenosine A2a came to 25%.
